Measurements: patent US20140073634A1 (Institute For Applied Cancer Science/The University of …, priority 2012, published 2014)

These compounds were tested on 293T-HRE-GFP-luc cells (assay: Cell-based reporter assay for IC50 determinations (HRE-luciferase, hypoxia)). Details: 6 h, 6 hrs hypoxia (1% O2), luminescence.
In short: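 293T-HRE-GFP-luc cells were pre-incubated with serially diluted compounds for 30 min under normoxia, then held 6 hrs in hypoxia (1% O2, 37° C). HRE-driven luciferase read by Steadylite Plus luminescence; IC50 from four-parameter logistic fit.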
`CS(=O)(=O)CCCOc1cccc(Cn2cc(-c3noc(-c4ccc(OC(F)(F)F)cc4)n3)ccc2=O)c1` [Example 69, 1-(3-(3-(Methylsulfonyl)propoxy)benzyl)-5-(5-(4-(trifluoromethoxy)phenyl)-1,2,4-oxadiazol-3-yl)pyridin-2(1H)-one] showed an IC50 of less than 100 nM.
Compound `COCCOc1cccc(Cn2cc(-c3noc(-c4ccc(C(C)(C)CO)cc4)n3)ccc2=O)c1` [Example 70, 5-(5-(4-(1-Hydroxy-2-methylpropan-2-yl)phenyl)-1,2,4-oxadiazol-3-yl)-1-(3-(2-methoxyethoxy)benzyl)pyridin-2(1H)-one] has an IC50 of less than 100 nM.
Work on `COCCOc1cccc(Cn2cc(-c3noc(-c4ccc(C5(C(F)(F)F)CC5)cc4)n3)ccc2=O)c1` [Example 71, 1-(3-(2-Methoxyethoxy)benzyl)-5-(5-(4-(1-(trifluoromethyl)cyclopropyl)phenyl)-1,2,4-oxadiazol-3-yl)pyridin-2(1H)-one] yielded an IC50 of less than 100 nM.
For `COCCOc1cccc(Cn2cc(-c3noc(-c4ccc(C(C)(C)COC)cc4)n3)ccc2=O)c1` [Example 72, 15-(5-(4-(1-Methoxy-2-methylpropan-2-yl)phenyl)-1,2,4-oxadiazol-3-yl)-1-(3-(2-methoxyethoxy)benzyl)pyridin-2(1H)-one], the IC50 was less than 100 nM.
`COCCOc1cccc(Cn2cc(-c3noc(-c4ccc(C(C)(C)O)cc4)n3)ccc2=O)c1` [Example 73, 5-(5-(4-(2-Hydroxypropan-2-yl)phenyl)-1,2,4-oxadiazol-3-yl)-1-(3-(2-methoxyethoxy)benzyl)pyridin-2(1H)-one] gave an IC50 of less than 100 nM.
`COCCOc1cccc(Cn2cc(-c3noc(-c4ccc(C5CCOCC5)cc4)n3)ccc2=O)c1` [Example 74, 1-(3-(2-Methoxyethoxy)benzyl)-5-(5-(4-(tetrahydro-2H-pyran-4-yl)phenyl)-1,2,4-oxadiazol-3-yl)pyridin-2(1H)-one] showed an IC50 of less than 100 nM.
`COCCOc1cccc(Cn2cc(-c3noc(-c4ccc(C5CCSCC5)cc4)n3)ccc2=O)c1` [Example 75, 1-(3-(2-Methoxyethoxy)benzyl)-5-(5-(4-(tetrahydro-2H-thiopyran-4-yl)phenyl)-1,2,4-oxadiazol-3-yl)pyridin-2(1H)-one] gave an IC50 of less than 100 nM.
With `CC(C)Oc1ccc(-c2nc(-c3ccc(=O)n(Cc4cccc(C(C)(C)O)c4)c3)no2)cc1` [Example 76, 1-(3-(2-Hydroxypropan-2-yl)benzyl)-5-(5-(4-isopropoxyphenyl)-1,2,4-oxadiazol-3-yl)pyridin-2(1H)-one] the IC50 was less than 100 nM.
`CS(=O)(=O)C1CCN(c2cccc(Cn3cc(-c4noc(-c5ccc(N6CCOCC6)cc5)n4)ccc3=O)c2)CC1` [Example 77, 1-(3-(4-(Methylsulfonyl)piperidin-1-yl)benzyl)-5-(5-(4-morpholinophenyl)-1,2,4-oxadiazol-3-yl)pyridin-2(1H)-one] showed an IC50 of less than 100 nM.
For `CC(C)Oc1ccc(-c2nc(-c3ccc(=O)n(Cc4cccc(N5CCC(S(C)(=O)=O)CC5)c4)c3)no2)cc1` [Example 78, 5-(5-(4-Isopropoxyphenyl)-1,2,4-oxadiazol-3-yl)-1-(3-(4-(methylsulfonyl)piperidin-1-yl)benzyl)pyridin-2(1H)-one], the IC50 was less than 100 nM.
For `COCCOc1cccc(Cn2cc(-c3nc(-c4ccc(C5(O)CCCCC5)cc4)no3)ccc2=O)c1` [Example 80, 5-(3-(4-(1-Hydroxycyclohexyl)phenyl)-1,2,4-oxadiazol-5-yl)-1-(3-(2-methoxyethoxy)benzyl)pyridin-2(1H)-one], the IC50 was less than 100 nM.
For `COCCOc1cccc(Cn2cc(-c3noc(-c4ccc(C(C)(C)OC)cc4)n3)ccc2=O)c1` [Example 81, 1-(3-(2-Methoxyethoxy)benzyl)-5-(5-(4-(2-methoxypropan-2-yl)phenyl)-1,2,4-oxadiazol-3-yl)pyridin-2(1H)-one], the IC50 was less than 100 nM.
`CS(=O)(=O)C1CCN(c2cccc(Cn3nc(-c4nc(-c5ccc(OC(F)F)cc5)no4)ccc3=O)c2)CC1` [Example 82, 6-(3-(4-(Difluoromethoxy)phenyl)-1,2,4-oxadiazol-5-yl)-2-(3-(4-(methylsulfonyl)piperidin-1-yl)benzyl)pyridazin-3(2H)-one] was tested, and the IC50 was less than 100 nM.
Compound `CS(=O)(=O)C1CCN(c2cccc(Cn3nc(-c4nc(-c5ccc(N6CCOCC6)cc5)no4)ccc3=O)c2)CC1` [Example 83, 2-(3-(4-(Methylsulfonyl)piperidin-1-yl)benzyl)-6-(3-(4-morpholinophenyl)-1,2,4-oxadiazol-5-yl)pyridazin-3(2H)-one] has an IC50 of less than 100 nM.
Work on `COCCOc1cccc(Cn2cc(-c3noc(-c4ccc(C5CCCCC5)cc4)n3)ccc2=O)c1` [Example 84, 5-(5-(4-Cyclohexylphenyl)-1,2,4-oxadiazol-3-yl)-1-(3-(2-methoxyethoxy)benzyl)pyridin-2(1H)-one] yielded an IC50 of less than 100 nM.
Work on `COCCOc1cccc(Cn2cc(-c3noc(-c4ccc(S(=O)(=O)CC#N)cc4)n3)ccc2=O)c1` [Example 85, 2-(4-(3-(1-(3-(2-Methoxyethoxy)benzyl)-6-oxo-1,6-dihydropyridin-3-yl)-1,2,4-oxadiazol-5-yl)phenylsulfonyl)acetonitrile] yielded an IC50 of 100 to 1000 nM.
`COCCOc1cccc(Cn2cc(-c3noc(-c4cnc(SC)nc4)n3)ccc2=O)c1` [Example 86, 1-(3-(2-Methoxyethoxy)benzyl)-5-(5-(2-(methylthio)pyrimidin-5-yl)-1,2,4-oxadiazol-3-yl)pyridin-2(1H)-one] showed an IC50 of less than 100 nM.
Compound `COCCOc1cccc(Cn2cc(-c3noc(-c4cnc(OCC(C)C)nc4)n3)ccc2=O)c1` [Example 87, 5-(5-(2-Isobutoxypyrimidin-5-yl)-1,2,4-oxadiazol-3-yl)-1-(3-(2-methoxyethoxy)benzyl)pyridin-2(1H)-one] has an IC50 of less than 100 nM.
`COCCOc1cccc(Cn2cc(-c3noc(-c4cnc(N5CCCCC5)nc4)n3)ccc2=O)c1` [Example 88, 1-(3-(2-Methoxyethoxy)benzyl)-5-(5-(2-(piperidin-1-yl)pyrimidin-5-yl)-1,2,4-oxadiazol-3-yl)pyridin-2(1H)-one] was tested, and the IC50 was less than 100 nM.
`Cc1cnc(-c2nc(-c3ccc(C(C)(C)C)cc3)no2)nc1Cc1cccc(N2CCN(C)CC2)c1` [Example 89, 3-(4-(Tert-butyl)phenyl)-5-(5-methyl-4-(3-(4-methylpiperazin-1-yl)benzyl)pyrimidin-2-yl)-1,2,4-oxadiazole] was tested, and the IC50 was less than 100 nM.
For `Cc1ncc(-c2nc(-c3ccc(OC(F)(F)F)cc3)no2)nc1Cc1cccc(N2CCN(C)CC2)c1` [Example 90, 5-(5-Methyl-6-(3-(4-methylpiperazin-1-yl)benzyl)pyrazin-2-yl)-3-(4-(trifluoromethoxy)phenyl)-1,2,4-oxadiazole], the IC50 was less than 100 nM.
`CN1CCN(c2cc(Cn3cc(-c4ncc(-c5ccc(OC(F)(F)F)cc5)o4)ccc3=O)ccn2)CC1` [Example 92, 1-((2-(4-Methylpiperazin-1-yl)pyridin-4-yl)methyl)-5-(5-(4-(trifluoromethoxy)phenyl)oxazol-2-yl)pyridin-2(1H)-one] was tested, and the IC50 was 100 to 1000 nM.
Compound `COCCOc1cccc(Cn2cc(-c3nc(-c4ccc(OC(F)(F)F)cc4)co3)ccc2=O)c1` [Example 94, 1-(3-(2-Methoxyethoxy)benzyl)-5-(4-(4-(trifluoromethoxy)phenyl)oxazol-2-yl)pyridin-2(1H)-one] has an IC50 of less than 100 nM.
`CS(=O)(=O)CCCOc1cccc(Cn2cc(-c3nc(-c4ccc(OC(F)(F)F)cc4)co3)ccc2=O)c1` [Example 95, 1-(3-(3-(Methylsulfonyl)propoxy)benzyl)-5-(4-(4-(trifluoromethoxy)phenyl)oxazol-2-yl)pyridin-2(1H)-one] gave an IC50 of less than 100 nM.
Work on `CN1CCN(c2cccc(Cn3cc(-c4cc(-c5ccc(OC(F)(F)F)cc5)on4)ccc3=O)c2)CC1` [Example 96a, 1-(3-(4-Methylpiperazin-1-yl)benzyl)-5-(5-(4-(trifluoromethoxy)phenyl)isoxazol-3-yl)pyridin-2(1H)-one] yielded an IC50 of less than 100 nM.
For `CN1CCN(c2cccc(Cn3cc(-c4cc(-c5ccc(OC(F)(F)F)cc5)no4)ccc3=O)c2)CC1` [Example 96b, 1-(3-(4-methylpiperazin-1-yl)benzyl)-5-(3-(4-(trifluoromethoxy)phenyl)isoxazol-5-yl)pyridin-2(1H)-on], the IC50 was less than 100 nM.
Work on `CN1CCN(c2cc(Cn3cc(-c4cc(-c5ccc(OC(F)(F)F)cc5)on4)ccc3=O)ccn2)CC1` [Example 97a, 1-((2-(4-Methylpiperazin-1-yl)pyridin-4-yl)methyl)-5-(5-(4-(trifluoromethoxy)phenyl)isoxazol-3-yl)pyridin-2(1H)-one] yielded an IC50 of less than 100 nM.
Compound `CN1CCN(c2cc(Cn3cc(-c4cc(-c5ccc(OC(F)(F)F)cc5)no4)ccc3=O)ccn2)CC1` [Example 97b, 1-((2-(4-methylpiperazin-1-yl)pyridin-4-yl)methyl)-5-(3-(4-(trifluoromethoxy)phenyl)isoxazol-5-yl)pyridin-2(1H)-one] has an IC50 of less than 100 nM.
With `CS(=O)(=O)C1CCN(c2cccc(Cn3cc(-c4cc(-c5ccc(OC(F)(F)F)cc5)no4)ccc3=O)c2)CC1` [Example 98, 1-(3-(4-(Methylsulfonyl)piperidin-1-yl)benzyl)-5-(3-(4-(trifluoromethoxy)phenyl)isoxazol-5-yl)pyridin-2(1H)-one] the IC50 was less than 100 nM.
Compound `CS(=O)(=O)C1CCN(c2cccc(Cn3cc(-c4cc(-c5ccc(OC(F)(F)F)cc5)on4)ccc3=O)c2)CC1` [Example 99, 1-(3-(4-(Methylsulfonyl)piperidin-1-yl)benzyl)-5-(5-(4-(trifluoromethoxy)phenyl)isoxazol-3-yl)pyridin-2(1H)-one] has an IC50 of less than 100 nM.
In the case of `CN1CCN(c2cccc(Cn3cc(-c4nnc(-c5ccc(OC(F)(F)F)cc5)o4)ccc3=O)c2)CC1` [Example 100, 1-Methyl-4-(3-((2-oxo-5-(5-(4-(trifluoromethoxy)phenyl)-1,3,4-oxadiazol-2-yl)pyridin-1(2H)-yl)methyl)phenyl)piperazin-1-ium 2,2,2-trifluoroacetate], the IC50 is reported as less than 100 nM.

Same assay, conditions: 6 hrs hypoxia (1% O2), luminescence
`CN1CCN(c2cccc(Cn3cc(-c4ncc(-c5ccc(OC(F)(F)F)cc5)o4)ccc3=O)c2)CC1` [Example 91, 1-(3-(4-Methylpiperazin-1-yl)benzyl)-5-(5-(4-(trifluoromethoxy)phenyl)oxazol-2-yl)pyridin-2(1H)-one] showed an IC50 of less than 100 nM.
`CN1CCN(c2cccc(Cn3cc(-c4nc(-c5ccc(OC(F)(F)F)cc5)co4)ccc3=O)c2)CC1` [Example 93, 1-(3-(4-Methylpiperazin-1-yl)benzyl)-5-(4-(4-(trifluoromethoxy)phenyl)oxazol-2-yl)pyridin-2(1H)-one] was tested, and the IC50 was less than 100 nM.
